Test results reported in patent US20220089629A1, “AMORPHOUS SIALYLATED OLIGOSACCHARIDES” (GLYCOM A/S, priority 2019, published 2022).
Where a name gives a salt, the structure may show the parent alone. Each block holds one molecule with its values, some of them ahead of it.

Legend:
[1] = pH measurement of aqueous solutions by pH-meter; type: physicochemical; conditions: for pH of aqueous stock solution: before pH adjustment
Procedure: When a pH value is referred to, it is measured by a pH-meter conventionally.
3′-SL Na-salt was made by bacterial fermentation and isolated in accordance with e.g. WO 2017/152918. An aqueous stock solution was made the concentration of which was 5.3 g/100 g, pH: 4.8.
Series A: a part of the above aqueous stock solution was adjusted to pH of 3.6 by addition of 1 M HCl-solution. The so-obtained solution was freeze-dried to give a white amorphous powder. The pH of its 5 w/w % solution was 3.9.
6′-SL Na-salt was made by bacterial fermentation and isolated in accordance with e.g. US 2018/0002363. An aqueous stock solution was made the concentration of which was 9.1 g/100 g, pH: 5.4.
Series A: a part of the above aqueous stock solution was adjusted to pH of 3.1 by addition of 1 M HCl-solution. The so-obtained solution was freeze-dried to give a white amorphous powder. The pH of its 5 w/w % solution was 3.5.

[2] = Forced heat stability test of freeze-dried amorphous 3′-SL samples, analysed by HPAEC-PAD; type: physicochemical
Procedure: Seven by one gram from each series, separately, was put into 4 ml glass vials and closed with screw lid containing teflon inliner (21 samples altogether). Three samples from each series were put into a 60° C. oven, and another three samples from each series were put into a 80° C. oven. One samples from each series was removed from the ovens after a time indicated below and kept in a freezer until analysis. The t=0 samples (one sample from each series) were kept in freezer during the entire time of the test.
The samples were analysed together after the longest incubation had finished by HPAEC-PAD on Carbopac PA-200 (3×250 mm) column using isocratic 75 mM NaOH+37.5 mM NaOAc eluent.

SMILES: CC(=O)N[C@H]1[C@H]([C@H](O)[C@H](O)CO)O[C@@](O[C@H]2[C@@H](O)[C@@H](CO)O[C@@H](O[C@H]3[C@H](O)[C@@H](O)C(O)O[C@@H]3CO)[C@@H]2O)(C(=O)O)C[C@@H]1O (stereo partly drawn) [3′-SL Na-salt, 3′-sialyllactose]
pH of aqueous stock solution ([1]; concentration 5.3 g/100 g): 4.8

SMILES: CC(=O)N[C@H]1[C@H]([C@H](O)[C@H](O)CO)O[C@@](OC[C@H]2O[C@@H](O[C@H]3[C@H](O)[C@@H](O)[C@H](O)O[C@@H]3CO)[C@H](O)[C@@H](O)[C@H]2O)(C(=O)O)C[C@@H]1O [6′-SL Na-salt, 6′-sialyllactose]
pH of aqueous stock solution ([1]; concentration 9.1 g/100 g): 5.4

SMILES: CC(=O)N[C@H]1[C@H]([C@H](O)[C@H](O)CO)O[C@@](O[C@H]2[C@@H](O)[C@@H](CO)O[C@@H](O[C@H]3[C@H](O)[C@@H](O)C(O)O[C@@H]3CO)[C@@H]2O)(C(=O)O)C[C@@H]1O (stereo partly drawn) [Example 1 Series A, 3′-sialyllactose]
content of 3′-O-sialyl-lactulose (ketose rearranged derivative of 3′-SL) in the sample ([2]; 60° C., 2 weeks, solid in closed vial, listed as sample A): 1.66 area %
content of 3′-O-sialyl-lactulose (ketose rearranged derivative of 3′-SL) in the sample ([2]; 60° C., 4 weeks, solid in closed vial, listed as sample A): 2.12 area %
content of 3′-O-sialyl-lactulose (ketose rearranged derivative of 3′-SL) in the sample ([2]; 60° C., 6 weeks, solid in closed vial, listed as sample A): 1.96 area %
content of 3′-O-sialyl-lactulose (ketose rearranged derivative of 3′-SL) in the sample ([2]; 80° C., 1 weeks, solid in closed vial, listed as sample A): 1.91 area %
content of 3′-O-sialyl-lactulose (ketose rearranged derivative of 3′-SL) in the sample ([2]; 80° C., 2 weeks, solid in closed vial, listed as sample A): 1.97 area %
content of 3′-O-sialyl-lactulose (ketose rearranged derivative of 3′-SL) in the sample ([2]; 80° C., 4 weeks, solid in closed vial, listed as sample A): 2.24 area %
content of 3′-O-sialyl-lactulose (ketose rearranged derivative of 3′-SL) in the sample ([2]; t = 0, kept in freezer, listed as sample A): 1.75 area %

SMILES: CC(=O)N[C@H]1[C@H]([C@H](O)[C@H](O)CO)O[C@@](O[C@H]2[C@@H](O)[C@@H](CO)O[C@@H](O[C@H]3[C@H](O)[C@@H](O)C(O)O[C@@H]3CO)[C@@H]2O)(C(=O)O)C[C@@H]1O (stereo partly drawn) [Example 1 Series B, 3′-sialyllactose]
content of 3′-O-sialyl-lactulose (ketose rearranged derivative of 3′-SL) in the sample ([2]; 60° C., 2 weeks, solid in closed vial, listed as sample B): 2.16 area %
content of 3′-O-sialyl-lactulose (ketose rearranged derivative of 3′-SL) in the sample ([2]; 60° C., 4 weeks, solid in closed vial, listed as sample B): 2.16 area %
content of 3′-O-sialyl-lactulose (ketose rearranged derivative of 3′-SL) in the sample ([2]; 60° C., 6 weeks, solid in closed vial, listed as sample B): 2.31 area %
content of 3′-O-sialyl-lactulose (ketose rearranged derivative of 3′-SL) in the sample ([2]; 80° C., 1 weeks, solid in closed vial, listed as sample B): 2.34 area %
content of 3′-O-sialyl-lactulose (ketose rearranged derivative of 3′-SL) in the sample ([2]; 80° C., 2 weeks, solid in closed vial, listed as sample B): 2.39 area %
content of 3′-O-sialyl-lactulose (ketose rearranged derivative of 3′-SL) in the sample ([2]; 80° C., 4 weeks, solid in closed vial, listed as sample B): 2.88 area %
content of 3′-O-sialyl-lactulose (ketose rearranged derivative of 3′-SL) in the sample ([2]; t = 0, kept in freezer, listed as sample B): 1.77 area %

The next lines start with the values.

content of 3′-O-sialyl-lactulose (ketose rearranged derivative of 3′-SL) in the sample ([2]; 60° C., 2 weeks, solid in closed vial, listed as sample C): 2.67 area %
content of 3′-O-sialyl-lactulose (ketose rearranged derivative of 3′-SL) in the sample ([2]; 60° C., 4 weeks, solid in closed vial, listed as sample C): 2.96 area %
content of 3′-O-sialyl-lactulose (ketose rearranged derivative of 3′-SL) in the sample ([2]; 60° C., 6 weeks, solid in closed vial, listed as sample C): 3.03 area %
content of 3′-O-sialyl-lactulose (ketose rearranged derivative of 3′-SL) in the sample ([2]; 80° C., 1 weeks, solid in closed vial, listed as sample C): 2.95 area %
content of 3′-O-sialyl-lactulose (ketose rearranged derivative of 3′-SL) in the sample ([2]; 80° C., 2 weeks, solid in closed vial, listed as sample C): 3.38 area %
content of 3′-O-sialyl-lactulose (ketose rearranged derivative of 3′-SL) in the sample ([2]; 80° C., 4 weeks, solid in closed vial, listed as sample C): 4.61 area %
content of 3′-O-sialyl-lactulose (ketose rearranged derivative of 3′-SL) in the sample ([2]; t = 0, kept in freezer, listed as sample C): 1.81 area %
SMILES: CC(=O)N[C@H]1[C@H]([C@H](O)[C@H](O)CO)O[C@@](O[C@H]2[C@@H](O)[C@@H](CO)O[C@@H](O[C@H]3[C@H](O)[C@@H](O)C(O)O[C@@H]3CO)[C@@H]2O)(C(=O)O)C[C@@H]1O (stereo partly drawn) [Example 1 Series C, 3′-sialyllactose]

pH of the 5 w/w % solution of the freeze-dried amorphous powder ([1]; 5 w/w % aqueous solution after freeze-drying): 6.2
SMILES: CC(=O)N[C@H]1[C@H]([C@H](O)[C@H](O)CO)O[C@@](OC[C@H]2O[C@@H](O[C@H]3[C@H](O)[C@@H](O)[C@H](O)O[C@@H]3CO)[C@H](O)[C@@H](O)[C@H]2O)(C(=O)O)C[C@@H]1O [Example 2 Series D, 6′-sialyllactose]
